Assay results: patent US10981906B2, “Substituted pyrrolopyridine JAK inhibitors and methods of making and using the same” (ACLARIS THERAPEUTICS, INC., priority 2017, dated 2021)
Read-outs that look alike come from different tables or passages of the source.

Columns and labels:
[1] = test system: IFNγ stimulated STAT1 phosphorylation on Tyr701 (JAK1/2); assay: JAK1/2 cellular target modulation: IFNγ stimulated phospho-STAT1 in PBMC; type: cell-based; details: IFNγ 10 ng/ml, 1 hour compound preincubation, read-out: Infγ-STAT1 IC50
Description: (§1) Target modulation was based upon the ability of a compound to inhibit JAK isoform specific phosphorylation of selected substrates. IL-2 stimulated STAT5 phosphorylation on Tyr694 was used to assess JAK1/3 compound selectivity. GM-CSF stimulated STAT5 phosphorylation on Tyr694 was used to assess JAK2 compound selectivity. IFNγ stimulated STAT1 phosphorylation on Tyr701 was used to assess JAK1/2 compound selectivity. For all three assays, human PBMC from frozen stocks were thawed, pelleted, resuspended in complete media (90% RPMI, 10% heat inactivated FBS, 10 mM HEPES, 47 μM 2-ME, pen/strep) and placed in wells of a 96 well V-bottom plate at 200,000 per well in 120 μl complete media. Compounds were added as 15 μl per well of 10× working stock solutions in complete media with 1% DMSO (or medium with 1% DMSO for controls) and placed on a plate shaker in a 37° C. incubator with 5% CO2 for 1 hour with gentle shaking (setting of 3). Stimulation used the addition of soluble cytokines. For the JAK1/3 phospho-STAT5 assay, 15 μl of 10× working stock recombinant human IL-2 was added to a final concentration of 25 ng/ml. For the JAK2 phospho-STAT5 assay, 15 μl of 10× working stock recombinant human GM-CSF was added to a final concentration of 5 ng/ml. For the JAK1/2 phospho-STAT1 assay, 15 μl of 10× working stock of recombinant human IFNγ was added to a final concentration of 10 ng/ml. Plates were then placed back on the plate shaker in the incubator for an additional 5, 5 and 10 minutes respectively upon which the plates were removed from the incubator, sealed with a plate sealer and the cells pelleted at 400×g for 5 minutes. After pelleting, the media was removed by aspiration and the cells were lysed in ELISA specific cell lysis buffer. The levels of phospho-STAT5 were determined using a Phospho (Tyr694)/Total STAT5a,b Whole Cell Lysate kit from Meso Scale Discovery. Levels of phospho-STAT1 were determined using a CST-PathScan Phospho-STAT1 (Tyr701) Sandwich ELISA kit.

JAK1 = JAK1 (Homo sapiens (Human), UniProt P23458); assay: JAK1 enzyme activity assay (Thermo Fisher SelectScreen Z-lyte); type: biochemical; details: 1 hour kinase reaction, read-out: JAK1 Inhibition IC50
Sequence of JAK1 (P23458 whole entry): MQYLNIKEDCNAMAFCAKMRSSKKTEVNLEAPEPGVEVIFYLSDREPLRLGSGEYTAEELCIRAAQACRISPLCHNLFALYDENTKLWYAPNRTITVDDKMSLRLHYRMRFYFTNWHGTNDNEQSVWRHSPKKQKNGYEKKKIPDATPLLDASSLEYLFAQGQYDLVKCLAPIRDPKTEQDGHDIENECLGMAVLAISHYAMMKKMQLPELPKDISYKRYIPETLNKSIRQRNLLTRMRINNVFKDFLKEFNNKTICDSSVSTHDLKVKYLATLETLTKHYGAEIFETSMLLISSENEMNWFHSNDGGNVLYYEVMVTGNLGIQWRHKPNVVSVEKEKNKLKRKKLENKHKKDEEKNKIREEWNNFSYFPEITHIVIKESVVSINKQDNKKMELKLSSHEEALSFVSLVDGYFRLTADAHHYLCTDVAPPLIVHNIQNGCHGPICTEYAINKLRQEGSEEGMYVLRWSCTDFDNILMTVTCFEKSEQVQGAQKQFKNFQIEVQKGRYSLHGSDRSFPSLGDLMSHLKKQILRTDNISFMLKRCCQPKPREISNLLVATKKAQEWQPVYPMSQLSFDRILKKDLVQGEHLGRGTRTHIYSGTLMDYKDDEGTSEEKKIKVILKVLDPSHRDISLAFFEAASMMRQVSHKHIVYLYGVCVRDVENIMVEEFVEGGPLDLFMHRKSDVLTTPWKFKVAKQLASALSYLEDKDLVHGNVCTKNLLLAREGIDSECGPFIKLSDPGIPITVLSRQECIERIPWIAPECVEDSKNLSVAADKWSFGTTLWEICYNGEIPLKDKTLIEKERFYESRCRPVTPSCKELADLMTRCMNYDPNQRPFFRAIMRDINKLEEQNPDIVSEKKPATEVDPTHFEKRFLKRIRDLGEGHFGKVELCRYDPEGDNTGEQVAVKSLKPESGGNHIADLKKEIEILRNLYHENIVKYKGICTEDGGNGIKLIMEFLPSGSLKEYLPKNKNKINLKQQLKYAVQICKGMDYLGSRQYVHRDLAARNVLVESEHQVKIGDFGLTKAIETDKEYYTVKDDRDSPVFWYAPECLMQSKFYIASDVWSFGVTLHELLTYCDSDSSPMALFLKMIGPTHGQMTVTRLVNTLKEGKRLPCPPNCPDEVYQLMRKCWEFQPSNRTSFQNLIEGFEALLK
Procedure: The inhibitory potency of candidate compounds of JAK1 done at Thermo Fisher Scientific in their Selectscreen using a Z-lyte assay. The 2×JAK1/Tyr 06 mixture is prepared in 50 mM HEPES pH 6.5, 0.01% BRIJ-35, 10 mM MgCl2, 1 mM EGTA, 0.02% NaN3. The final 10 μL of the Kinase Reaction consists of 21.2-91.5 ng JAK1 and 2 μM Tyr 06 in 50 mM HEPES pH 7.0, 0.01% BRIJ-35, 10 mM MgCl2, 1 mM EGTA, 0.01% NaN3. After the 1 hour Kinase Reaction incubation, 5 μL of a 1:128 dilution of Development Reagent is added.
(§2) Background signal is defined in the absence of enzyme and uninhibited signal is defined in the presence of vehicle (2% DMSO) alone. Compounds were evaluated in an 11 point dose-response ranging from […] to 0.34 nM. IC50 values of compounds are determined using a 4 parameter logistical fit of emission ratio as a function of the concentration of compound.

[2] = test system: IL-2 stimulated STAT5 phosphorylation on Tyr694 (JAK1/3); assay: JAK1/3 cellular target modulation: IL-2 stimulated phospho-STAT5 in PBMC; type: cell-based; details: IL-2 25 ng/ml, 1 hour compound preincubation, read-out: IL2-STAT5 Inhibition IC50
Description: as §1

JAK3 (a.a. 781-1124) = JAK3 (a.a. 781-1124) (Homo sapiens (Human), UniProt P52333); assay: JAK3 enzyme activity assay (SRCtide phosphorylation, Caliper); type: biochemical; details: 2.5 nM JAK3, 1 μM SRCtide, 1 uM ATP, 40 minutes; read-out: JAK3 Inhibition IC50
Sequence of JAK3 (a.a. 781-1124) (P52333 781-1124): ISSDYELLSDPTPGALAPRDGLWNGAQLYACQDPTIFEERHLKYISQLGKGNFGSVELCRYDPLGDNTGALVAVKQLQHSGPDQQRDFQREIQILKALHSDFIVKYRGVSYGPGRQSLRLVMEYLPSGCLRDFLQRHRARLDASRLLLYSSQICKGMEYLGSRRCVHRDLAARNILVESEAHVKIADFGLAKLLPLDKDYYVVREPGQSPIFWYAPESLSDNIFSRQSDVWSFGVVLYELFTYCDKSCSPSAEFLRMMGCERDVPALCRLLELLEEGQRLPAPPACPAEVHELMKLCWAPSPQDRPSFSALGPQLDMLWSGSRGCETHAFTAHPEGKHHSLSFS
Procedure: The activity of JAK3 (a.a. 781-1124, ThermoFisher) was quantified by measuring the phosphorylation of SRCtide (FAM-GEEPLYWSFPAKKK-NH2). Kinase reactions were run in a 384-well Greiner plate with 2% final DMSO concentration under the buffer conditions of 20 mM HEPES, pH 7.5, 10 mM MgCl2, 0.01% BSA, and 0.0005% Tween-20. The kinase reaction components were 2.5 nM JAK3, 1 μM SRCtide peptide and 1 uM ATP. Examples were tested in dose-response starting at 2 μM (11 concentrations, 3-fold serial dilution, duplicate reactions). The reactions were incubated at room temperature for 40 minutes, then stopped by adding a 1:1 volume of 30 mM EDTA in 20 mM HEPES, pH 7.5 (15 mM EDTA final). After the reaction was stopped, the phosphorylated and unphosphorylated peptides were separated and quantified using a Caliper LC3000/EZ-Reader system and HTS Well Analyzer Software (Caliper, A PerkinElmer Company, Hopkinton, Mass.). GraFit (Erithacus Software Ltd., Horley, U.K.) was used to calculate inhibitor potency by fitting dose-response data to the 4-parameter logistical IC50 equation.
as §2

Compound | IC50 ([1]; Homo sapiens, PBMC) [nM] | IC50 (JAK1) [nM] | IC50 ([2]; Homo sapiens, PBMC) [nM] | IC50 (JAK3 (a.a. 781-1124)) [nM] | IC50 ([1]; human PBMC) [nM] | IC50 ([2]; human PBMC) [nM]
CCOC(=O)c1cnc2[nH]ccc2c1NC1CCC(CCC#N)C1 (mixture of isomers) [Example 153, Ethyl 4-((3-(2-cyanoethyl)cyclopentyl)amino)-1H-pyrrolo[2,3-b]pyridine-5-carboxylate as a mixture of 2 stereoisomers] | 100 to 1000 | ≤ 10 | ≤ 100 | ≤ 10 | – | –
CCOC(=O)c1cnc2[nH]ccc2c1N[C@H]1CC[C@H](OC(=O)CC#N)C1 (single isomer, unassigned) [Example 73, (trans)-ethyl 4-((3-(2-cyanoacetoxy)cyclopentyl)amino)-1H-pyrrolo [2,3-b]pyridine-5-carboxylate] | – | ≤ 10 | ≤ 100 | 10 to 100 | ≤ 100 | –
CCOC(=O)c1cnc2[nH]ccc2c1N[C@H]1CCC[C@@H](CCC#N)C1 (single isomer, unassigned; enantiomer 1) [Example 135, (cis) ethyl 4-((3-(2-cyanoethyl)cyclohexyl)amino)-1H-pyrrolo[2,3-b]pyridine-5-carboxylate, enantiomer 1] | ≤ 100 | ≤ 10 | ≤ 100 | ≤ 10 | – | –
COC(=O)c1cnc2[nH]ccc2c1N[C@H]1CCC[C@H](CCC#N)C1 (racemic) [Example 151, trans-racemic-methyl 4-((3-(2-cyanoethyl)cyclohexyl)amino)-1H-pyrrolo[2,3-b]pyridine-5-carboxylate] | 100 to 1000 | ≤ 10 | ≤ 100 | ≤ 10 | – | –
COC(=O)c1cnc2[nH]ccc2c1N[C@H]1CN(C(=O)CC#N)CC[C@H]1C [Example 118, methyl 4-(((3R,4R)-1-(2-cyanoacetyl)-4-methylpiperidin-3-yl)amino)-1H-pyrrolo[2,3-b]pyridine-5-carboxylate] | 100 to 1000 | ≤ 10 | ≤ 100 | 10 to 100 | – | –
CCOC(=O)c1cnc2[nH]ccc2c1N[C@H]1CN(C(=O)C(C)C#N)CC[C@H]1C (stereo partly drawn) [Example 127, ethyl 4-(((3R,4R)-1-(2-cyanopropanoyl)-4-methylpiperidin-3-yl)amino)-1H-pyrrolo[2,3-b]pyridine-5-carboxylate] | 100 to 1000 | ≤ 10 | ≤ 100 | 10 to 100 | – | –
COCCOC(=O)c1cnc2[nH]ccc2c1N[C@H]1CCC[C@H](CCC#N)C1 (racemic) [Example 148, racemic, trans-2-methoxyethyl 4-((3-(2-cyanoethyl)cyclohexyl)amino)-1H-pyrrolo[2,3-b]pyridine-5-carboxylate] | 100 to 1000 | 10 to 100 | 100 to 1000 | ≤ 10 | – | –
CCOC(=O)c1cnc2[nH]ccc2c1N[C@H]1CCC[C@H](CCC#N)C1 (single isomer, unassigned; enantiomer 2) [Example 138, (trans)-ethyl 4-((3-(2-cyanoethyl)cyclohexyl)amino)-1H-pyrrolo[2,3-b]pyridine-5-carboxylate, enantiomer 2] | 100 to 1000 | 10 to 100 | 100 to 1000 | ≤ 10 | – | –
CCOC(=O)c1cnc2[nH]ccc2c1NC1CCC(CCC#N)C1 (single isomer, unassigned; stereoisomer 1) [Example 154, Ethyl 4-((3-(2-cyanoethyl)cyclopentyl)amino)-1H-pyrrolo[2,3-b]pyridine-5-carboxylate, single stereoisomer 1] | > 1000 | 100 to 1000 | 100 to 1000 | 10 to 100 | – | –
CCOC(=O)c1cnc2[nH]ccc2c1N[C@H]1CC[C@H](CS(=O)(=O)NC)CC1 [Example 92, ethyl 4-(((1r,4r)-4-((N-methylsulfamoyl)methyl)cyclohexyl)amino)-1H-pyrrolo[2,3-b]pyridine-5-carboxylate] | 100 to 1000 | ≤ 10 | ≤ 100 | ≤ 10 | – | –
CCOC(=O)c1cnc2[nH]ccc2c1N[C@H]1CC[C@H](OC(=O)CC#N)C1 (single isomer, unassigned) [Example 74, (trans)-ethyl 4-((3-(2-cyanoacetoxy)cyclopentyl)amino)-1H-pyrrolo[2,3-b]pyridine-5-carboxylate] | – | 10 to 100 | – | 10 to 100 | > 1000 | 100 to 1000
CCOC(=O)c1cnc2[nH]ccc2c1N[C@H]1CN(C(=O)C2(C#N)CC2)CC[C@H]1C [Example 126, ethyl 4-(((3R,4R)-1-(1-cyanocyclopropane-1-carbonyl)-4-methylpiperidin-3-yl)amino)-1H-pyrrolo[2,3-b]pyridine-5-carboxylate] | > 1000 | 10 to 100 | 100 to 1000 | 10 to 100 | – | –
CCOC(=O)c1cnc2[nH]ccc2c1NC1CCCC(O)C1 (centres unmarked) [Example 141, ethyl 4-((3-hydroxycyclohexyl)amino)-1H-pyrrolo[2,3-b]pyridine-5-carboxylate] | > 1000 | 10 to 100 | 100 to 1000 | 10 to 100 | – | –
CCOC(=O)c1cnc2[nH]ccc2c1NC1CCC(O)C(CC#N)C1 (centres unmarked) [Example 142, ethyl 4-((3-(cyanomethyl)-4-hydroxycyclohexyl)amino)-1H-pyrrolo[2,3-b]pyridine-5-carboxylate] | 100 to 1000 | ≤ 10 | ≤ 100 | 10 to 100 | – | –
COCCOC(=O)c1cnc2[nH]ccc2c1N[C@@H]1CCC[C@H](CCC#N)C1 (single isomer, unassigned; enantiomer 2) [Example 150, cis 2-methoxyethyl 4-((3-(2-cyanoethyl)cyclohexyl)amino)-1H-pyrrolo[2,3-b]pyridine-5-carboxylate, enantiomer 2] | 100 to 1000 | ≤ 10 | ≤ 100 | ≤ 10 | – | –
CCOC(=O)c1cnc2[nH]ccc2c1N[C@@H]1CC[C@H](C)N(C(=O)CC#N)C1 [Example 146, ethyl 4-(((3R,6S)-1-(2-cyanoacetyl)-6-methylpiperidin-3-yl)amino)-1H-pyrrolo[2,3-b]pyridine-5-carboxylate] | ≤ 100 | ≤ 10 | ≤ 100 | ≤ 10 | – | –
COC(=O)c1cnc2[nH]ccc2c1N[C@@H]1CCC[C@H](CCC#N)C1 (racemic) [Example 152, cis-racemic-methyl 4-((3-(2-cyanoethyl)cyclohexyl)amino)-1H-pyrrolo[2,3-b]pyridine-5-carboxylate] | 100 to 1000 | ≤ 10 | ≤ 100 | ≤ 10 | – | –
